Reference: ChEMBL document CHEMBL1201862, “PubChem BioAssay data set” (2004)
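Where inhibition never reached the appropriate level, the endpoint shown equals the highest concentration tested. Otherwise, values were interpolated linearly from a five-concentration, 48-hour dose response in 96-well plates. At the GI50, growth is halved.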 The source made the active and inactive calls. Rule as the data show it: active = GI50 up to about 1.1 µM and inactive = higher.

What was measured:
Assay in all cases: growth of human tumour cells (NCI), 48 h
[1] = system: LXFL 529
[2] = system: OVCAR-8
[3] = system: K562
[4] = system: RXF 393
[5] = system: NCI-H460
[6] = system: SF-539
[7] = system: HT-29
[8] = system: TK-10
[9] = system: NCI-H522
[10] = system: HOP-92
[11] = system: SK-MEL-5
[12] = system: UACC-62
[13] = system: KM12
[14] = system: SF-268
[15] = system: NCI-H226
[16] = system: NCI/ADR-RES
[17] = system: MCF7
[18] = system: Hs-578T
[19] = system: DU-145
[20] = system: PC-3

Measured: GI50

Cc1ccc(S(=O)(=O)NC(=O)NC23CC4CC(CC(F)(C4)C2)C3)cc1
inactive: [1] > 100 µM | [2] > 100 µM | [3] > 100 µM | [4] > 100 µM | [5] > 100 µM | [6] > 100 µM | [7] > 100 µM | [8] > 100 µM | [9] > 100 µM | [10] > 100 µM | [11] > 100 µM | [12] > 100 µM | [13] > 100 µM

CCCCCCCCCCSC(=O)NC
inactive: [1] 49.4 µM | [2] 28 µM | [3] 25.8 µM | [4] 19.9 µM | [5] 33.3 µM | [6] 35.3 µM | [7] 29.7 µM | [8] 37.9 µM | [9] 21.3 µM | [14] 31.8 µM | [10] 18.6 µM | [11] 20.5 µM | [12] 35.5 µM | [13] 35.2 µM

CSc1n[n+]2c(s1)SCCC2
inactive: [1] > 100 µM | [2] > 100 µM | [3] > 100 µM | [4] > 100 µM | [5] > 100 µM | [6] > 100 µM | [7] > 100 µM | [8] > 100 µM | [9] 26.9 µM | [14] 80.2 µM | [10] > 100 µM | [11] 46.5 µM | [12] > 100 µM | [13] 44.7 µM

O[C@]12c3ccccc3C1CCCC2N1CCOCC1 (stereo partly drawn)
inactive: [1] > 100 µM | [2] > 100 µM | [3] > 100 µM | [4] > 100 µM | [5] > 100 µM | [7] > 100 µM | [8] > 100 µM | [9] > 100 µM | [14] > 100 µM | [11] > 100 µM | [12] > 100 µM | [13] > 100 µM | [15] > 100 µM

COc1cc(CC2c3cc(OC)c(OC)cc3CCN2C)ccc1O (stereo not drawn)
inactive: [1] > 100 µM | [2] > 100 µM | [3] > 100 µM | [5] > 100 µM | [6] > 100 µM | [7] > 100 µM | [8] > 100 µM | [9] > 100 µM | [14] > 100 µM | [11] > 100 µM | [13] > 100 µM

COc1cc2c(cc1OC)[C@H]1C(COC(=O)Nc3ccccc3)CN1CC2 (stereo partly drawn)
inactive: [1] > 100 µM | [2] > 100 µM | [3] > 100 µM | [4] 58.5 µM | [5] > 100 µM | [6] > 100 µM | [7] 74.5 µM | [8] > 100 µM | [9] > 100 µM | [14] > 100 µM | [10] 69.3 µM | [11] 53.8 µM | [12] > 100 µM | [13] > 100 µM

COc1cccc(/C=N/n2c(Cc3ccc(Cl)cc3)n[nH]c2=O)c1
inactive: [2] 16.9 µM | [3] > 100 µM | [4] 2 µM | [5] > 91.4 µM | [6] 15.8 µM | [7] 12.4 µM | [16] 30.6 µM | [17] 29.9 µM | [18] 23.4 µM | [8] 74 µM | [9] 14.7 µM | [14] 15.9 µM | [10] 23.1 µM | [19] 25.8 µM | [11] > 100 µM | [12] 34.2 µM | [13] > 100 µM | [15] > 28.2 µM | [20] 56.5 µM

Cc1nn(C(=O)c2ccc(Cl)cc2)c2c1C(c1ccc(Cl)cc1)SC(=N)N2 (stereo not drawn)
inactive: [2] > 10 µM | [3] > 10 µM | [4] > 10 µM | [5] > 10 µM | [6] > 10 µM | [7] > 10 µM | [16] > 10 µM | [17] > 10 µM | [18] > 10 µM | [8] > 10 µM | [9] > 10 µM | [14] > 10 µM | [10] > 10 µM | [19] > 10 µM | [11] > 10 µM | [12] > 10 µM | [13] > 10 µM | [15] > 10 µM | [20] > 10 µM

O=C(c1cc(Cl)cc(Cl)c1)N(Cc1cccnc1)C(=S)N(Cc1cccnc1)C(=O)c1cc(Cl)cc(Cl)c1
inactive: [2] 28.8 µM | [3] 24.4 µM | [4] 34.2 µM | [5] 64.3 µM | [6] 23.4 µM | [7] 31.9 µM | [16] 37.4 µM | [17] 5.69 µM | [18] 60.8 µM | [8] 31.3 µM | [9] 23.8 µM | [14] 41.3 µM | [10] 36.6 µM | [19] 41.8 µM | [11] 23.3 µM | [12] 45.7 µM | [13] 24.5 µM | [15] 52.1 µM | [20] 18.4 µM

CC(C)(C)c1cc(C(C)(C)C)c2sc(=S)oc2c1O
inactive: [2] 6.34 µM | [3] 15 µM | [4] 4.69 µM | [5] 6.1 µM | [6] 2.39 µM | [7] 14.9 µM | [16] 9.89 µM | [17] 6.79 µM | [18] 4.43 µM | [8] 1.18 µM | [9] 5.9 µM | [14] 3.4 µM | [10] 14.1 µM | [19] 11.7 µM | [11] 8.17 µM | [12] 10.4 µM | [13] 4.79 µM | [15] 15.2 µM | [20] 4.29 µM

O=c1[nH]ncc2[nH]c3c(c12)CCCc1ccccc1-3
inactive: [2] 53.6 µM | [3] 12.9 µM | [4] 15.1 µM | [5] 29.7 µM | [6] 30.1 µM | [7] 31.1 µM | [16] 37.9 µM | [17] 29.4 µM | [18] 5.53 µM | [8] 50.1 µM | [9] 48.9 µM | [14] 23.6 µM | [10] 72.3 µM | [19] 54.5 µM | [11] 22.4 µM | [12] 23.7 µM | [13] 37.4 µM | [15] 38.7 µM | [20] 64.1 µM

CCCCCC(O)(CCCCC)CCCCCCCCC1=C(O)C(=O)c2ccccc2C1=O
inactive: [2] 7.19 µM | [3] 3.08 µM | [4] 12.9 µM | [5] 5.28 µM | [6] 11.2 µM | [7] 14.1 µM | [16] 4.4 µM | [17] 9.62 µM | [18] 16.1 µM | [8] 15 µM | [9] 12.2 µM | [14] 6.95 µM | [10] 14.6 µM | [19] 8.53 µM | [11] 3.62 µM | [12] 8.17 µM | [13] 5.62 µM | [15] 14 µM | [20] 7.5 µM
